Assay results from ChEMBL document CHEMBL1250526, “Delphinidin, a dietary anthocyanidin in berry fruits, inhibits human glyoxalase I” (Bioorg Med Chem, 2010).
Activity calls are given as the source filed them. The rule behind the calls is not given here.

How the values were obtained:
[1] = target: Lactoylglutathione lyase (Homo sapiens, UniProt Q04760); assay: Inhibition of human recombinant glyoxalase 1 assessed as S-D-lactoylglutathione after 15 mins by spectrophotometric analysis
[2] = tested on: HL-60; assay: Antiproliferative activity against human HL60 cells at up to 100 uM after 48 hrs by MTS assay; format: functional, cell-based
[3] = tested on: HL-60; assay: Antiproliferative activity against human HL60 cells after 24 hrs by MTS assay; format: functional, cell-based; conditions: HL-60, 24 h
[4] = tested on: HL-60; assay: Antiproliferative activity against human HL60 cells after 48 hrs by MTS assay; format: functional, cell-based
[5] = tested on: HL-60; assay: Antiproliferative activity against human HL60 cells at up to 100 uM by MTS assay; format: functional, cell-based; conditions: TDE = time-dependent effect
[6] = tested on: HL-60; assay: Induction of apoptosis in human HL60 cells assessed as nucleosomal DNA fragmentation at up to 100 uM using ethidium bromide staining by agarose gel electrophoresis; format: functional, cell-based; conditions: TDE = time-dependent effect
[7] = tested on: HL-60; assay: Induction of apoptosis in human HL60 cells assessed as nucleosomal DNA fragmentation after 48 hrs using ethidium bromide staining by agarose gel electrophoresis; format: functional, cell-based

Chain of Lactoylglutathione lyase (Q04760 whole entry): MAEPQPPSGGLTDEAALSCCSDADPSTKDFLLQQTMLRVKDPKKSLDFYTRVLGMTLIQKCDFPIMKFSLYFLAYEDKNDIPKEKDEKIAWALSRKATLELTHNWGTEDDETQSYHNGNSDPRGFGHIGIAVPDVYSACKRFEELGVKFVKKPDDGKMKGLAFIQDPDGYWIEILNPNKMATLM

Structure (SMILES)	IC50 [1] [µM]	Activity [2]	IC50 [3] [µM]	Activity [4]	IC50 ([4]; HL-60, 48 h) [µM]	Activity [5]	Activity [6]	Activity [7]
Oc1cc(O)c2cc(O)c(-c3ccc(O)c(O)c3)[o+]c2c1 [CYANIDIN CHLORIDE]	11.7	Active	–	–	–	–	–	–
Oc1cc(O)c2cc(O)c(-c3cc(O)c(O)c(O)c3)[o+]c2c1 [DELPHINIDIN CHLORIDE]	1.9	–	80	Dose-dependent effect	40	tde	tde	Dose-dependent effect
Oc1ccc(-c2[o+]c3cc(O)cc(O)c3cc2O)cc1 [PELARGONIDIN CHLORIDE]	16.4	Active	–	–	–	–	–	–
